IC50 and Ki data for one compound are collected here from ChEMBL document CHEMBL1145508, “Role of homoserine transacetylase as a new target for antifungal agents” (Antimicrob Agents Chemother, 2007).

Experiment [1] is described as follows: Inhibition of Schizosaccharomyces pombe HTA in presence of 10 uM acetyl-CoA substrate.
A short description of experiment [2]: Inhibition of Schizosaccharomyces pombe HTA in presence of 100 uM acetyl-CoA substrate.
Experiment [3] in a line: Inhibition of Cryptococcus neoformans H99 HTA expressed in Escherichia coli BL21(DE3) cells.

In the case of `NC(=O)c1cccc2c1NC(C(=O)O)C1CC=CC21` (centres undefined), the IC50 – broadly, the concentration needed to halve the response being measured – turned out to be 156 µM in experiment [1], 287 µM in experiment [2] and 4.5 µM in experiment [3]. Besides, the affinity in experiment [3] corresponds to a Ki of 91.7 µM.
